The values that follow come from BindingDB's records for doi:10.1046/j.1471-4159.2000.0752590.x (F. Hoffmann-La Roche, 2000).

The target in assay [1] is Metabotropic glutamate receptor 1 (Homo sapiens, UniProt Q13255).
The target in assay [2] is Metabotropic glutamate receptor 5 (Homo sapiens, UniProt P41594).

By Ki is commonly meant the equilibrium dissociation constant of an inhibitor or competing ligand from its target. Higher therefore signals weaker binding.

Sequence of Metabotropic glutamate receptor 5 (P41594 whole entry): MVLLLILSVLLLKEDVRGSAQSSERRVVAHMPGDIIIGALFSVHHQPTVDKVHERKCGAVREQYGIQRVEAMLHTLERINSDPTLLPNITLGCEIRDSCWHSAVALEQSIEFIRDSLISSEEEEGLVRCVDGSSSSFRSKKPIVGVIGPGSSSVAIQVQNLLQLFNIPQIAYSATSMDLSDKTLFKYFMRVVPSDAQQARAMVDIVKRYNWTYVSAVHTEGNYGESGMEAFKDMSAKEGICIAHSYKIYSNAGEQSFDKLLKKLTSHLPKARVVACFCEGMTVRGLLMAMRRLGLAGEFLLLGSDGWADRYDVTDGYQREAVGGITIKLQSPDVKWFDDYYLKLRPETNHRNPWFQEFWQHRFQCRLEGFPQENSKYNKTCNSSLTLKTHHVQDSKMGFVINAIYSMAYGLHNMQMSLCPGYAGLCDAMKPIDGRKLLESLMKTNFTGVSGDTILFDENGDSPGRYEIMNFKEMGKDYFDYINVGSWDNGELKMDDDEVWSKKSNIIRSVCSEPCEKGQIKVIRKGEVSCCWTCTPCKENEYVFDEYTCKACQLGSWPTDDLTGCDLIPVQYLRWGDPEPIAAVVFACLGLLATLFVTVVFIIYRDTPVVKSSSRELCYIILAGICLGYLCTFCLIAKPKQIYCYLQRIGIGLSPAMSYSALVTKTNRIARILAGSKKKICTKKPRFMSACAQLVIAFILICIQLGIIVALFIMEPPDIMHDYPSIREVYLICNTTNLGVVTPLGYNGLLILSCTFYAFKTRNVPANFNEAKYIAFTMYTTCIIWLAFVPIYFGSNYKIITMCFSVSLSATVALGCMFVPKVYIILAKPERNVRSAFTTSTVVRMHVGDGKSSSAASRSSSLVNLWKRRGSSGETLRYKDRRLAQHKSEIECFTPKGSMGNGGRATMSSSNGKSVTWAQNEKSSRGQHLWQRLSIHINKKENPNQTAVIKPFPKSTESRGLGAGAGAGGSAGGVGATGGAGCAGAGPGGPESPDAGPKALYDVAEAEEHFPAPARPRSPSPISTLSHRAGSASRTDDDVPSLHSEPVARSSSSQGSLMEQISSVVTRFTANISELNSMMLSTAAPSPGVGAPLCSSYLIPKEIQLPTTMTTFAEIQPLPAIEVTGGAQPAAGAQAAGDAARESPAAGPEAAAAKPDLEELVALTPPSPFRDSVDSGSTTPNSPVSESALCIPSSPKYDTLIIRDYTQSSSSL
Sequence of Metabotropic glutamate receptor 1 (Q13255 whole entry): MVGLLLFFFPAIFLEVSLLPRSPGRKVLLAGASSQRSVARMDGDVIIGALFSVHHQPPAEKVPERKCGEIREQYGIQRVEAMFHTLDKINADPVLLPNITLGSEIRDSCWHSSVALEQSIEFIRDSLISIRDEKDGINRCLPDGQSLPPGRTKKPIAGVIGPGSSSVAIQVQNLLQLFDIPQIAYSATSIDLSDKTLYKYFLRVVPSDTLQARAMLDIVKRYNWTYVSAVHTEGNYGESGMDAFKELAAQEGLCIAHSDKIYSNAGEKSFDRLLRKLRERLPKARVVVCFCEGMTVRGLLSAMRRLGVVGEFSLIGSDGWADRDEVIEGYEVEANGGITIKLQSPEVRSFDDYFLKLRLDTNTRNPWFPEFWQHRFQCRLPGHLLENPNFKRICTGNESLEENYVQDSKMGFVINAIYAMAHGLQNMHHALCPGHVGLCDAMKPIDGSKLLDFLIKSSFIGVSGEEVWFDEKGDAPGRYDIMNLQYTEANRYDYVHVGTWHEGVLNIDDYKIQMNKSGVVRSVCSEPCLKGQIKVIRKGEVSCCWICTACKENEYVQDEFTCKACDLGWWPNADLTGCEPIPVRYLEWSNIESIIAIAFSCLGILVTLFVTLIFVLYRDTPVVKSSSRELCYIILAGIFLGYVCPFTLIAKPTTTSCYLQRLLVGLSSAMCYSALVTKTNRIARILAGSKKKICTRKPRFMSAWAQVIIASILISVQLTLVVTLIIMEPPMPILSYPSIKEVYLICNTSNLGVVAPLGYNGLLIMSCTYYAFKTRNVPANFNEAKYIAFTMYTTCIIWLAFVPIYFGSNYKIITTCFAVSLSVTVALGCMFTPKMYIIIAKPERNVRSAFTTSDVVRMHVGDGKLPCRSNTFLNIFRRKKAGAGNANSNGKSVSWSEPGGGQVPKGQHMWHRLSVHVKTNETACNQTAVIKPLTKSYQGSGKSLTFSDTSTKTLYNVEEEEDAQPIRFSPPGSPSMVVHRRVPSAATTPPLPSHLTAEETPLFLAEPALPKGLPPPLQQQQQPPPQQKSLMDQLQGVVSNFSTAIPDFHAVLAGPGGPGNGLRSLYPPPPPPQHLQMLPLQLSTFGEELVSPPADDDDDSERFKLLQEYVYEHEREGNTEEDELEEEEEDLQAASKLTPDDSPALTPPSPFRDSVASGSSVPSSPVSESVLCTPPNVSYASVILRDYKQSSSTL

`N[C@@H](CCP(=O)(O)O)C(=O)O`: the Ki in assay [1] and in assay [2] was above 10 µM each time. `NC(C(=O)O)c1ccc(C(=O)O)c(O)c1` (stereo unspecified) gave a Ki in assay [2] of 2.5 µM. Take `C[C@@](N)(C(=O)O)c1ccc(C(=O)O)cc1` (racemic): the Ki in assay [1] and in assay [2] was above 10 µM throughout. As to `NC1(C(=O)O)CCc2cc(C(=O)O)ccc21` (racemic) [AIDA], the Ki in assay [1] and in assay [2] was above 10 µM each time. In assay [2], `N[C@@]1(C(=O)O)CC[C@H](C(=O)O)C1` [1S, 3R-ACPD] returned a Ki of 2.1 µM. In other words, the single-digit micromolar range. In the case of `N[C@@H](Cn1oc(=O)[nH]c1=O)C(=O)O` [2-amino-3-(3,5-dioxo[1,2,4]oxadiazolidin-2-yl)propionic acid], affinity in assay [2] was put at a Ki of 0.029 µM.

Consider `Cc1cc(C(N)C(=O)O)ccc1C(=O)O` (stereo unspecified) [2Me4CPG], for which the figures for the Ki in assay [1] and in assay [2] were 0.7 µM and above 10 µM, respectively. On to `Cc1onc(O)c1CC(N)C(=O)O` (stereo not drawn) [(RS)-2-amino-3-(3-hydroxy-5-methylisoxazol-4-yl)-propionicacid], for which the Ki in assay [1] and in assay [2] was above 10 µM throughout. In the case of `N[C@H](C(=O)O)c1cccc(O)c1` [(S)-3-Hydroxyphenylglycine], the Ki in assay [1] was above 10 µM; in assay [2], 8.4 µM.

With `N[C@@H](C(=O)O)c1ccc(C(=O)O)cc1` [(S)-4CPG], the Ki is 3.7 µM in assay [1] and above 10 µM in assay [2]. Taken in the same sequence, the figures for `NC(C(=O)O)c1cc(=O)[nH]o1` (stereo unspecified) [Amino-(3-hydroxy-isoxazol-5-yl)-acetic acid(Ibotenic acid)] were 1.2 µM and 1.9 µM.

Take `N[C@H](CP(=O)(O)O)C(=O)O` [CAS_23052-80-4]: the Ki in assay [1] and in assay [2] was above 10 µM in each case. On to `Nc1nc(O)c2ncn(COC(CO)CO)c2n1` [CAS_82410-32-0], for which the Ki in assay [1] came out at 0.9 µM; in assay [2], 3.9 µM. With `NC(C(=O)O)c1cc(O)ccc1Cl` (stereo unspecified) [CHPG], the Ki in assay [1] and in assay [2] was above 10 µM throughout. With `N[C@H](C(=O)O)C1[C@@H](C(=O)O)[C@@H]1C(=O)O` (stereo partly specified) [DCG-IV], the Ki in assay [1] and in assay [2] was above 10 µM throughout. For the compound `N[C@H](C(=O)O)[C@H]1C[C@H]1C(=O)O` [L-CCG-IV], the Ki was 2.3 µM in assay [1] and 1.5 µM in assay [2]. As to `O=c1nc2c3cc(-n4ccnc4)c([N+](=O)[O-])cc3[nH]c(=O)n2[nH]1` [Ro-48-8587], the Ki in assay [1] and in assay [2] was above 10 µM in each case.
